In ChEMBL document CHEMBL4265900, “Discovery of the bifunctional modulator of angiotensin II type 1 receptor (AT1R) and PPARγ derived from the AT1R antagonist, Fimasartan” (Bioorg Med Chem Lett, 2018):
Active and inactive are the calls of the source. The rule behind the calls is not given here.

Experiments:
[1] = molecular target: T1, Type-1 angiotensin II receptor (Homo sapiens) (UniProt P30556); test: Antagonist activity at type-1 angiotensin 2 receptor (unknown origin) at 20 nM by calcium mobilizing assay relative to fimasartan; format: functional
T1 sequence (whole entry): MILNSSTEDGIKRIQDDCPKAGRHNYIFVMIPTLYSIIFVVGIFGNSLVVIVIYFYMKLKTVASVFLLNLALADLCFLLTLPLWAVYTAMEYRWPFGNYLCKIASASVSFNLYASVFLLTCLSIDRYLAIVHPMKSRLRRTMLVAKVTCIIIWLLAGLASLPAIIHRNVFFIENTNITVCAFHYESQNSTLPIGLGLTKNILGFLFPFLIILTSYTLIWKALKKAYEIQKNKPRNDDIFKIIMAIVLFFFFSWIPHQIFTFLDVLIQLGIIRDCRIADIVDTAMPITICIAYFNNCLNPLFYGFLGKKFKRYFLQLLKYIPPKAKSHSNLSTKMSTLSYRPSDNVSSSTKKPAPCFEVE

[2] = molecular target: T2, Peroxisome proliferator-activated receptor gamma (Homo sapiens) (UniProt P37231); test: Agonist activity at PPARgamma (unknown origin) at 1 uM relative to telmisartan
T2 sequence (whole entry): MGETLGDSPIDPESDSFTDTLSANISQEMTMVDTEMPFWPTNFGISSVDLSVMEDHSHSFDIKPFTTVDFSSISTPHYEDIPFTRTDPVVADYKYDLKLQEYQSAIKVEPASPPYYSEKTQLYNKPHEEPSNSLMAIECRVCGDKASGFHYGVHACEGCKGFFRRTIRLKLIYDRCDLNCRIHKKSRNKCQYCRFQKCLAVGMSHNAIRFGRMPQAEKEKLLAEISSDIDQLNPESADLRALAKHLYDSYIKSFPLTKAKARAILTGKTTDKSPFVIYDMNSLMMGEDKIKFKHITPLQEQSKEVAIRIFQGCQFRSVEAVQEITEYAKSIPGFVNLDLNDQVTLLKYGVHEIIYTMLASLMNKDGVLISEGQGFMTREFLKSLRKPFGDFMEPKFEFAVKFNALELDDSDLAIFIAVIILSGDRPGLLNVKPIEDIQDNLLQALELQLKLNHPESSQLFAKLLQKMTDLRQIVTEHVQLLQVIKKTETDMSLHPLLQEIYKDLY

[3] = molecular target: T3, Type-1 angiotensin II receptor (Homo sapiens, UniProt P30556); test: Antagonist activity at type-1 angiotensin 2 receptor (unknown origin) by calcium mobilizing assay; format: functional
T3 sequence (P30556 whole entry): T1 sequence (whole entry)

[4] = Half life in rat at 60 mg/kg, po; format: ADME, organism-based; settings: in vivo
[5] = AUClast in rat at 60 mg/kg, po; format: ADME, organism-based; set-up: dose 60 mg/kg, time 0 - last, route oral; settings: in vivo
[6] = molecular target: CYP2D6 (Homo sapiens, UniProt P10635); test: Inhibition of CYP2D6 (unknown origin) assessed as remaining activity at 10 uM; format: ADME; settings: read-out: Activity
[7] = Stability in rat liver microsomes assessed as compound remaining after 30 mins; format: ADME, microsome; settings: read-out: Stability
[8] = system: Rattus norvegicus; test: Antihypertensive activity in angiotensin 2 induced hypertension rat model at 30 mg/kg, po measured until 8 hrs post dose; format: functional, organism-based
[9] = Ratio of AUClast in rat at 60 mg/kg, po to AUClast in mouse at 60 mg/kg, po; format: ADME, organism-based; settings: in vivo
[10] = Stability in dog liver microsomes assessed as compound remaining after 30 mins; format: ADME, Canis lupus familiaris, microsome; settings: read-out: Stability
[11] = Stability in mouse liver microsomes assessed as compound remaining after 30 mins; format: ADME, microsome; settings: read-out: Stability
[12] = molecular target: CYP2C19 (Homo sapiens, UniProt P33261); test: Inhibition of CYP2C19 (unknown origin) assessed as remaining activity at 10 uM; format: ADME; settings: read-out: Activity
[13] = system: Rattus norvegicus; test: Antihypertensive activity in angiotensin 2 induced hypertension rat model assessed as time required for 50% reduction in blood pressure at 30 mg/kg, po; format: functional
[14] = system: Mus musculus; test: Antidiabetic activity in db/db mouse model assessed as suppression of blood glucose increase at 60 mg/kg qd, po administered for 13 days; format: functional, organism-based
[15] = AUClast in mouse at 60 mg/kg, po; format: ADME, organism-based; set-up: dose 60 mg/kg, time 0 - last, route oral; settings: in vivo
[16] = molecular target: Voltage-gated inwardly rectifying potassium channel KCNH2 (Homo sapiens, UniProt Q12809); test: Inhibition of human ERG
[17] = molecular target: T4, CYP1A2 (Homo sapiens, UniProt P05177); test: Inhibition of CYP1A2 (unknown origin) assessed as remaining activity at 10 uM; format: ADME; settings: read-out: Activity
T4 sequence (P05177 whole entry): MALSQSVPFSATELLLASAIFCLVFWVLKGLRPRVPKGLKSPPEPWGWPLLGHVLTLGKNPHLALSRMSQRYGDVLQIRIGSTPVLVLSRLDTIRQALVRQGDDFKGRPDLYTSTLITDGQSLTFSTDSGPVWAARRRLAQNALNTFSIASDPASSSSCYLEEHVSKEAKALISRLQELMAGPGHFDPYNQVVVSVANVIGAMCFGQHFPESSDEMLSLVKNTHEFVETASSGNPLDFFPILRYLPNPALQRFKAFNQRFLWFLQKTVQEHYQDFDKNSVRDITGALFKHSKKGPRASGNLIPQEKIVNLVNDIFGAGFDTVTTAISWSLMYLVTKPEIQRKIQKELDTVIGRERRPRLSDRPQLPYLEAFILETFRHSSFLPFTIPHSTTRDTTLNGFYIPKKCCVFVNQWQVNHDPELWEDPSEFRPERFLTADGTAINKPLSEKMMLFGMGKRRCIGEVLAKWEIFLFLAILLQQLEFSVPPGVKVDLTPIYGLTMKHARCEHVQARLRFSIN

[18] = molecular target: CYP2C9 (Homo sapiens, UniProt P11712); test: Inhibition of CYP2C9 (unknown origin) assessed as remaining activity at 10 uM; format: ADME; settings: read-out: Activity
[19] = Tmax in mouse at 60 mg/kg, po; format: ADME, organism-based; settings: in vivo
[20] = Tmax in rat at 60 mg/kg, po; format: ADME, organism-based; settings: in vivo
[21] = Cmax in rat at 60 mg/kg, po; format: ADME, organism-based; set-up: dose 60 mg/kg, route oral; settings: in vivo
[22] = molecular target: T2, Peroxisome proliferator-activated receptor gamma (Homo sapiens); test: Agonist activity at PPARgamma (unknown origin) at 1 uM relative to pioglitazone
[23] = Stability in human liver microsomes assessed as compound remaining after 30 mins; format: ADME, microsome; settings: read-out: Stability
[24] = molecular target: CYP3A4 (Homo sapiens, UniProt P08684); test: Inhibition of CYP3A4 (unknown origin) assessed as remaining activity at 10 uM; format: ADME; settings: read-out: Activity
[25] = system: Rattus norvegicus; test: Antihypertensive activity in angiotensin 2 induced hypertension rat model at 30 mg/kg, po measured after 24 hrs relative to fimasartan; format: functional
[26] = molecular target: T3, Type-1 angiotensin II receptor; test: Antagonist activity at type-1 angiotensin 2 receptor (unknown origin) by beta-arrestin recruitment assay; format: functional
[27] = system: Mus musculus; test: Toxicity in db/db mouse model assessed as suppression of weight gain at 60 mg/kg, po qd measured after 11 days; format: organism-based; settings: in vivo, 264 h
[28] = molecular target: T5, Peroxisome proliferator-activated receptor gamma (Homo sapiens, UniProt P37231); test: Agonist activity at PPARgamma (unknown origin)
T5 sequence (P37231 whole entry): T2 sequence (whole entry)

[29] = Half life in mouse at 60 mg/kg, po; format: ADME, organism-based; settings: in vivo
[30] = Cmax in mouse at 60 mg/kg, po; format: ADME, organism-based; set-up: dose 60 mg/kg, route oral; settings: in vivo
[31] = system: Mus musculus; test: Toxicity in db/db mouse model assessed as suppression of weight gain at 20 mg/kg, po qd measured after 11 days; format: organism-based; settings: in vivo, 264 h
[32] = system: Mus musculus; test: Antidiabetic activity in db/db mouse model assessed as suppression of blood glucose increase at 20 mg/kg qd, po administered for 13 days; format: functional, organism-based

Sequence of CYP2C9 (P11712 whole entry): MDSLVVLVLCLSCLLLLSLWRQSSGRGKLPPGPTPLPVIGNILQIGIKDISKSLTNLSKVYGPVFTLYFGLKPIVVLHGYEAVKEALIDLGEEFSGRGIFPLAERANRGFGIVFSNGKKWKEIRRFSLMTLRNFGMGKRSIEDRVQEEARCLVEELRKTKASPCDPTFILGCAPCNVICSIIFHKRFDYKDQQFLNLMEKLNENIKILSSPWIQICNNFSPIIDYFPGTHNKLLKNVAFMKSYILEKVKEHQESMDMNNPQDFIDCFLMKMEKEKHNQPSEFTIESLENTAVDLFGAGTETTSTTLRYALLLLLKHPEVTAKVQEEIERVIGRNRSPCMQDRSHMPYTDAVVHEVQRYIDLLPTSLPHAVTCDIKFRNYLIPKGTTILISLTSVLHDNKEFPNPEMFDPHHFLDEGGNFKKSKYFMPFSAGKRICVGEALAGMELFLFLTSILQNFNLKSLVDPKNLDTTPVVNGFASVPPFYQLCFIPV
Sequence of CYP3A4 (P08684 whole entry): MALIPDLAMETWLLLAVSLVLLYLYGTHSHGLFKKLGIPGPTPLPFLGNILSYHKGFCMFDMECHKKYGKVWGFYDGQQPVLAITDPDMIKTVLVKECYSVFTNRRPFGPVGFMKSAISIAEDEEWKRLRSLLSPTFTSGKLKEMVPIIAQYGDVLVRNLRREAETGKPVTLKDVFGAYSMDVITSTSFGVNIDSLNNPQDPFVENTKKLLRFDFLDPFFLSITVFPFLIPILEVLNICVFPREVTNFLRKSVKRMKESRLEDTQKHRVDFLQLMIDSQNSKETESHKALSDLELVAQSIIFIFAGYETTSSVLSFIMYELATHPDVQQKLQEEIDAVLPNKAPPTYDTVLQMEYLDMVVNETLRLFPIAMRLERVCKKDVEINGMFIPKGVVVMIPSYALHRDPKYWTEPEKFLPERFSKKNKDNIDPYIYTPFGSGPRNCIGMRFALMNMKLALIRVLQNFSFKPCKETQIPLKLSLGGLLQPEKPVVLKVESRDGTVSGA
Sequence of Voltage-gated inwardly rectifying potassium channel KCNH2 (Q12809 whole entry): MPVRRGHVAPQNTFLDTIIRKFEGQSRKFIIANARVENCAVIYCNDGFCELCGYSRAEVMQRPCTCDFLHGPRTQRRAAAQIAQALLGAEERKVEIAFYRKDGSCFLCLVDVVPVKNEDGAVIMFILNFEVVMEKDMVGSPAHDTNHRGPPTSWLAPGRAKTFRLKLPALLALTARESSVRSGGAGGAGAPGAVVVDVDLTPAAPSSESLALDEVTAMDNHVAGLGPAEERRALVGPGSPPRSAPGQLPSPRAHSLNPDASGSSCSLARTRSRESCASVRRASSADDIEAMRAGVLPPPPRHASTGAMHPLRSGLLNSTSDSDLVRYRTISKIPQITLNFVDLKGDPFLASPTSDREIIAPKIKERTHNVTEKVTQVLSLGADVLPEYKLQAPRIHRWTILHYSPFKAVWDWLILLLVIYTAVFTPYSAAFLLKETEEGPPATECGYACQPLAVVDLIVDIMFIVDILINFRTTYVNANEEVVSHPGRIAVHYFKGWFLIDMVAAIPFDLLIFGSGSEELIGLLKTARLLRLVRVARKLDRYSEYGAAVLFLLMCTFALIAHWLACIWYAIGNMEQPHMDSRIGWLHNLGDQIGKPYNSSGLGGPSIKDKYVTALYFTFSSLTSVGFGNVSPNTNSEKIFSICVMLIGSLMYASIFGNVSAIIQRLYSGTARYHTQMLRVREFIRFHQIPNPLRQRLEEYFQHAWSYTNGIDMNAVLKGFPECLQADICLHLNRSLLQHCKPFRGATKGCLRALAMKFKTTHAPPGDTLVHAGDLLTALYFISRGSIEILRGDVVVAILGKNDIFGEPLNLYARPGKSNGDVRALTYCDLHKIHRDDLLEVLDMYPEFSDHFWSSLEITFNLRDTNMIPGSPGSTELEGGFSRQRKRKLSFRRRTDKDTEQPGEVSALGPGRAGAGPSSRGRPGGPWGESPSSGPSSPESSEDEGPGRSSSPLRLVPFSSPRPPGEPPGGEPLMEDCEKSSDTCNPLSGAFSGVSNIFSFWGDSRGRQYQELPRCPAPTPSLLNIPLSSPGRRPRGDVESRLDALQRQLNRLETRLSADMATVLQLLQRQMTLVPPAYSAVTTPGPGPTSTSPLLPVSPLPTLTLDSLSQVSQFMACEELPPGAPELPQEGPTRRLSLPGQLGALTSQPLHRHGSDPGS
Sequence of CYP2C19 (P33261 whole entry): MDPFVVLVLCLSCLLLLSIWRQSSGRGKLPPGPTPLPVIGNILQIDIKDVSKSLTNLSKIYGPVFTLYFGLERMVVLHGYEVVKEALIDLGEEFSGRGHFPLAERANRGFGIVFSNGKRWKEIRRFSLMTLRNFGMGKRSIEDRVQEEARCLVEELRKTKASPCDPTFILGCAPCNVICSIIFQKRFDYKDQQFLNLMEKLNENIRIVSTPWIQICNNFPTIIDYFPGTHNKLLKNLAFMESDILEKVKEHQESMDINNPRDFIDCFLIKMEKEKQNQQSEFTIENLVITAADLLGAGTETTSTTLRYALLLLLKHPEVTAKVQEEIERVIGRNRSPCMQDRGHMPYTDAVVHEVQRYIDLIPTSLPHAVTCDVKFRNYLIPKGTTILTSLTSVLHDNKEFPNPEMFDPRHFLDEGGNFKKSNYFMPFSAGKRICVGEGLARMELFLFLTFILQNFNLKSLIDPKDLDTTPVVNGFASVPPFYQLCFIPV
Sequence of CYP2D6 (P10635 whole entry): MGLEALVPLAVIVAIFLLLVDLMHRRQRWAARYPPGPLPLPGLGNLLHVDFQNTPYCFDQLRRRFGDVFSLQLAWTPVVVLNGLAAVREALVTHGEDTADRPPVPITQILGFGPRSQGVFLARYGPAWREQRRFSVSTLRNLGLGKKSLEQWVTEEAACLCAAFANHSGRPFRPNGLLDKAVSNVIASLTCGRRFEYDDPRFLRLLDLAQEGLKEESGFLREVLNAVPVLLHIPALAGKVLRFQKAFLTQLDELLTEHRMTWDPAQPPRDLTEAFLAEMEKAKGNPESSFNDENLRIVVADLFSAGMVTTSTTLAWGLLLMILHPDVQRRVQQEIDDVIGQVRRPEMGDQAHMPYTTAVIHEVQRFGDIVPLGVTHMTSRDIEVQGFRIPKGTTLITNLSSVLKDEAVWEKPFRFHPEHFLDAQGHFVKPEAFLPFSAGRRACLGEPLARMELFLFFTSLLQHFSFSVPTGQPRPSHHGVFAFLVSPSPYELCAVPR

`CCCCc1nc(C)c(CC(=S)N(C)C)c(=O)n1Cc1ccc(-c2ccccc2S(N)(=O)=O)cc1` showed an inhibition [1] of 11%.
`CCCCc1nc(C)c(CC(=S)N(C)C(C)C)c(=O)n1Cc1ccc(-c2ccccc2-c2noc(=O)[nH]2)cc1` showed an Activity [2] of 106% and an inhibition [1] of 107%.
For `CCCCc1nc(C)c(CC(=S)N2CCCCC2)c(=O)n1Cc1ccc(-c2ccccc2-c2noc(=O)[nH]2)cc1`, the IC50 [3] was 38 nM and the Activity [2] was 116%.
For `CCCCc1nc(C(C)C)c(CC(=S)N2CCCC2)c(=O)n1Cc1ccc(-c2ccccc2-c2noc(=O)[nH]2)cc1`, the half-life [4] was 4.73 h, the AUC(0-t) [5] was 13400 ng·h/mL and the IC50 [3] was 2.2 nM. For the same molecule, the activity at 10 µM [6] was 99%, the remaining at 0.5 h [7] was 24% and the Activity [8] was “Active”. The “Ratio AUC” value [9] was 4, the remaining at 0.5 h [10] was 62% and the remaining at 0.5 h [11] was 11%. For the same molecule, the activity at 10 µM [12] was 84%, the Time [13] was 16 h and the Activity [14] was “Active”. For the same molecule, the AUC(0-t) [15] was 2570 ng·h/mL, the IC50 [16] was 7000 nM and the activity at 10 µM [17] was 97%. It also gave an Activity [2] of 156%, an activity at 10 µM [18] of 36% and a Tmax [19] of 0.5 h. The Tmax [20] was 1.17 h, the Cmax [21] was 2570 ng/mL and the Activity [22] was 66%. It also gave a remaining at 0.5 h [23] of 13%, an activity at 10 µM [24] of 62% and an Activity [25] of 50%. The IC50 [26] was 10.5 nM, the Activity [27] was “Non-Toxic” and the EC50 [28] was 3100 nM. The half-life [29] was 3.67 h and the Cmax [30] was 1860 ng/mL.
`CCCCc1nc(C)c(CC(=S)N(C)CC(C)C)c(=O)n1Cc1ccc(-c2ccccc2-c2noc(=O)[nH]2)cc1` gave an IC50 [3] of 2.1 nM and an Activity [2] of 122%.
In the case of `CCCCc1nc(C)c(CC(=S)N(C)C)c(=O)n1Cc1ccc(-c2ccccc2-c2noc(=O)[nH]2)cc1`, the IC50 [3] is reported as 1.6 nM and the Activity [2] is reported as 120%.
For `CCCCc1nc(C)c(CC(=S)N2CCCC2C)c(=O)n1Cc1ccc(-c2ccccc2-c2noc(=O)[nH]2)cc1` (stereo unspecified), the IC50 [3] was 1.2 nM and the Activity [2] was 107%.
With `CCc1ccc(CCOc2ccc(CC3SC(=O)NC3=O)cc2)nc1` (stereo unspecified) [PIOGLITAZONE] the Activity [31] was “Non-Toxic” and the Activity [32] was “Active”.
Work on `CCCCc1nc(C)c(CC(=S)N2CC[C@@H]3CCCC[C@H]32)c(=O)n1Cc1ccc(-c2ccccc2-c2noc(=O)[nH]2)cc1` yielded an IC50 [3] of 70 nM and an Activity [2] of 121%.
Molecule `CCCCc1nc(C2CC2)c(CC(=S)N2CCCC2)c(=O)n1Cc1ccc(-c2ccccc2-c2noc(=O)[nH]2)cc1` has an Activity [2] of 79% and an inhibition [1] of 63%.
